Data: patent publication US12691070B2, “Cationic lipids and preparation method thereof” (RiboX Therapeutics HK Limited, priority 2023, dated 2026)

Columns and labels:
BALB/C mice [1] = test: In vivo expression, whole-body luminescence (IVIS)
Protocol: 6-8 week old, female BALB/C mice were injected with 0.05 mg*kg-1 of RNA-LNPs encoding for firefly-luciferase by intravenous injection. At 6 hours post injection, animals were intraperitoneally injected with 15 mg/ml of Luciferin substrate and whole-body luminescence was determined by a bioluminescent in vivo imaging system (IVIS).

[2] = tested on: Aspartate Aminotransferase (AST); test: Liver enzyme elevation in serum, AST; type: in vivo; settings: cirRNA (SEQ ID NO: 1) LNPs, BALB/C mice, intravenous 0.5 MPK
Protocol: (§1) 6-8 week old, female BALB/C mice were injected with 0.5 mg*kg-1 of RNA LNPs by intravenous injection. At 2 and 24 hours post injection, animals were bled and sera concentrations of Alanine Aminotransferase (ALT) and Aspartate Aminotransferase (AST) were determined by a blood chemistry analyzer.

Hep G2 cells [3] = test: In vitro toxicity (CellTiter-Glo cell viability), Hep G2; type: cell-based;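 also: percent of untreated cells luminescence signal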
Summary of the method: (§2)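 RNA-LNPs 1 μg/mL; 72 h post-transfection; CellTiter-Glo luminescence read-out; % viability calculated from signal.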

RAW 264.7 cells [4] = test: In vitro expression of firefly-luciferase, RAW 264.7; type: cell-based
Summary of the method: (§3)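 First, cells were dosed with RNA lipid nanoparticles encoding firefly luciferase (100 ng/mL). Second, at 72 h they were washed and lysed. Third, lysate luciferase activity was read with a luminometer.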

MCP-I = MCP-I cytokine elevation in serum; type: in vivo; settings: cirRNA (SEQ ID NO: 1) LNPs, mice
Protocol: 6-8 week old, female BALB/C mice were injected with 0.5 mg*kg-1 of RNA LNPs by intravenous injection. At 2 and 24 hours post injection, animals were bled and sera concentrations of MCP-I were determined by an immunoassay (Luminex).

BALB/C mice [5] = test: Local tolerance determination by footpad injection; type: in vivo; settings: cirRNA (SEQ ID NO: 1) LNP, 0.175 mg*kg-1 subcutaneous into the footpad, 24 hours post minus prior
Protocol: 6-8 week old, female BALB/C mice were injected with 0.175 mg*kg-1 RNA LNPs by subcutaneous injection into the footpad. Prior to, and 24 hours post injections, injected footpad thickness was determined by a caliper.

RAW 264.7 cells [6] = test: In vitro toxicity (CellTiter-Glo cell viability), RAW 264.7; type: cell-based;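 also: percent of untreated cells luminescence signal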
Summary of the method: as §2

[7] = RNA encapsulation efficacy by Quant-IT Ribogreen kit; type: physicochemical; settings: for Encapsulation Efficiency %: LNP with cirRNA (SEQ ID NO: 1); for Encapsulation Efficiency: LNP with mRNA (SEQ ID NO: 2)
Summary of the method: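 Dynamic light scattering and zeta potential measurements were run on PBS-dialyzed LNPs, which had been formed by microfluidic mixing at 12 ml/min with final lipid at 1.5 mM to 6 mM. RNA content and percent encapsulation were determined by Ribogreen with and without Triton X-100.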

[8] = tested on: Alanine Aminotransferase (ALT); test: Liver enzyme elevation in serum, ALT; type: in vivo; settings: cirRNA (SEQ ID NO: 1) LNPs, BALB/C mice, intravenous 0.5 MPK
Protocol: as §1

[9] = LNP zeta potential (Zetasizer); type: physicochemical
Summary of the method: (§4)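 Ribogreen fluorescence with and without Triton X-100 gave encapsulation as 100% − (intact/lysed) signal; DLS size, PDI and zeta potential measured on a Zetasizer. Particles: 50:10:38.5:1.5 lipid mix, luciferase circRNA or mRNA, lipid:nucleotide 15 or 6, microfluidic assembly at pH 4.5, PBS-dialyzed.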

Hep G2 cells [10] = test: In vitro expression of firefly-luciferase, Hep G2; type: cell-based
Summary of the method: as §3

[11] = LNP size and polydispersity index (PDI) by dynamic light scattering; type: physicochemical; settings: for Size: in nm (unit assumed)
Summary of the method: as §4

[12] = cirRNA (SEQ ID NO: 1) LNPs, BALB/C mice
[13] = mRNA (SEQ ID NO: 2) LNP, 0.05 mg*kg-1 intravenous, 6 hours post injection
[14] = cirRNA (SEQ ID NO: 1) LNPs, Hep G2 cells
[15] = mRNA (SEQ ID NO: 2) LNP, 1 μg/mL, 72 hours post transfection
[16] = cirRNA (SEQ ID NO: 1) LNPs, firefly-luciferase luminescence, RAW 264.7 cells
[17] = mRNA (SEQ ID NO: 2) LNP, 100 ng/mL, 72 hours post transfection, luciferase activity
[18] = cirRNA (SEQ ID NO: 1) LNPs, RAW 264.7 cells
[19] = cirRNA (SEQ ID NO: 1) LNPs, firefly-luciferase luminescence, Hep G2 cells

Compound	In vivo Expression (Whole Body) (BALB/C mice [1]; [12])	In vivo Expression (Whole Body) (BALB/C mice [1]; [13])	AST in Sera (IU/L) 2 hours After 0.5 MPK Injection [2] [IU/L]	AST in Sera (IU/L) 24 hours After 0.5 MPK Injection [2] [IU/L]	In vitro Viability HepG2 (Hep G2 cells [3]; [14]) [%]	In vitro Viability HepG2 (Hep G2 cells [3]; [15]) [%]	In vitro Expression RAW (RAW 264.7 cells [4]; [16])	In vitro Expression RAW (RAW 264.7 cells [4]; [17])	MCP-I in Sera 2 hours After 0.5 MPK Injection (MCP-I) [pg/mL]	MCP-I in Sera 24 hours After 0.5 MPK Injection (MCP-I) [pg/mL]	Footpad Thickness (24 h−0 h, mm) (BALB/C mice [5]) [mm]	In vitro Viability RAW (RAW 264.7 cells [6]; [18]) [%]	In vitro Viability RAW (RAW 264.7 cells [6]; [15]) [%]	Encapsulation Efficiency % [7] [%]	Encapsulation Efficiency [7] [%]	ALT in Sera (IU/L) 2 hours After 0.5 MPK Injection [8] [IU/L]	ALT in Sera (IU/L) 24 hours After 0.5 MPK Injection [8] [IU/L]	Zeta (mV) ([9]; LNP with cirRNA (SEQ ID NO: 1))	Zeta (mV) ([9]; LNP with mRNA (SEQ ID NO: 2))	In vitro Expression HepG2 (Hep G2 cells [10]; [19])	further results
CCCCCCCCCCC(CCCCCCCC)COC(=O)CCCCCN(CCCCCC(=O)OCC(CCCCCCCC)CCCCCCCCCC)CCCOC(=O)NCCN1CCCC1 (centres unmarked) [Lipid 369]	1.30E+07	6.54E+08	364.00	290.00	78	94	1.84E+05	2.18E+07	6463.00	1338.00	0.57	61	90	97	92.99	158.00	121.00	4.427	10	1.04E+06	In vitro Expression HepG2 (Hep G2 cells [10]; [17]): 7.28E+07; PDI ([11]; LNP with cirRNA (SEQ ID NO: 1)): 0.1084; Size ([11]; LNP with cirRNA (SEQ ID NO: 1)): 93.14; PDI ([11]; LNP with mRNA (SEQ ID NO: 2)): 0.1166; Size ([11]; LNP with mRNA (SEQ ID NO: 2)): 120.9
CCCCCCCCCCC(CCCCCCCC)COC(=O)CCCCCN(CCCCCC(=O)OCC(CCCCCCCC)CCCCCCCCCC)CCCOC(=O)NCCN1CCCCC1 (centres unmarked) [Lipid 370]	3.68E+08	3.37E+08	276.33	413.33	93	94	1.98E+06	3.26E+07	4872.33	1652.33	0.50	96	107	97	93.87	102.00	123.00	0.1617	0.9875	2.65E+07	In vitro Expression HepG2 (Hep G2 cells [10]; [17]): 6.38E+07; PDI ([11]; LNP with cirRNA (SEQ ID NO: 1)): 0.08162; Size ([11]; LNP with cirRNA (SEQ ID NO: 1)): 90.63; PDI ([11]; LNP with mRNA (SEQ ID NO: 2)): 0.1494; Size ([11]; LNP with mRNA (SEQ ID NO: 2)): 112.8
CCCCCCCCC(CCCCCC)C(=O)OCCCCCCCCN(CCCCCCCCOC(=O)C(CCCCCC)CCCCCCCC)CCCOC(=O)NCCN(C)C (centres unmarked) [Lipid 374]	1.53E+08	4.07E+09	435.67	431.67	70	57	2.34E+06	5.38E+05	3843.00	1289.00	0.63	84	84	96	85.44	136.67	152.67	3.631	3.895	1.89E+07	In vitro Expression HepG2 (Hep G2 cells [10]; [17]): 3.70E+07; PDI ([11]; LNP with cirRNA (SEQ ID NO: 1)): 0.1683; Size ([11]; LNP with cirRNA (SEQ ID NO: 1)): 105.2; PDI ([11]; LNP with mRNA (SEQ ID NO: 2)): 0.06656; Size ([11]; LNP with mRNA (SEQ ID NO: 2)): 88.86
CCCCCCCCC(CCCCCC)C(=O)OCCCCCCCCN(CCCCCCCCOC(=O)C(CCCCCC)CCCCCCCC)CCCOC(=O)NCc1ncc[nH]1 (centres unmarked) [Lipid 375]	3.46E+08	8.41E+08	292.00	251.67	100	100	7.06E+05	2.13E+05	2740.67	396.29	0.27	90	78	89	88.53	174.67	120.33	−1.253	−4.713	1.10E+06	In vitro Expression HepG2 (Hep G2 cells [10]; [17]): 4.36E+05; PDI ([11]; LNP with cirRNA (SEQ ID NO: 1)): 0.2011; Size ([11]; LNP with cirRNA (SEQ ID NO: 1)): 92.54; PDI ([11]; LNP with mRNA (SEQ ID NO: 2)): 0.008186; Size ([11]; LNP with mRNA (SEQ ID NO: 2)): 75.13
CCCCCCCCC(CCCCCC)C(=O)OCCCCCCCCN(CCCCCCCCOC(=O)C(CCCCCC)CCCCCCCC)CCCOC(=O)NCCCN(CC)CC (centres unmarked) [Lipid 376]	1.16E+08	1.56E+09	434.67	293.67	48	53	1.00E+06	8.33E+04	6397.67	561.62	0.89	87	100	97	90.28	117.33	141.33	9.074	5.722	4.84E+06	In vitro Expression HepG2 (Hep G2 cells [10]; [17]): 5.32E+05; PDI ([11]; LNP with cirRNA (SEQ ID NO: 1)): 0.1398; Size ([11]; LNP with cirRNA (SEQ ID NO: 1)): 102; PDI ([11]; LNP with mRNA (SEQ ID NO: 2)): 0.07745; Size ([11]; LNP with mRNA (SEQ ID NO: 2)): 87.9
